Data from patent US20090298757A1, “OXYNTOMODULIN ANALOGUES AND THEIR EFFECTS ON FEEDING BEHAVIOUR” (Imperial Innovations Limited, priority 2005, published 2009).
“Also recorded” adds a separate entry of the source. Non-standard residues stand in square brackets, D forms with d. No end group written: not given here. *: point of attachment. Lauroyl = CCCCCCCCCCCC(=O)*

Test system: C57BL/6 mice
Experiment: Food intake in fasted mice after injection of peptide
Type: in vivo, mouse
Settings: for Multiples of food inhibition Factor: Example 9, food intake during the first hour after injection, activity relative to oxm (1400 nmol/kg); for potency relative to oxyntomodulin: as mentioned in the examples section, times that of oxyntomodulin
Description: Animals. All animal procedures were approved by the British Home Office Animals (Scientific Procedures) Act 1986 (Project License number 70/5516). Male C57BL/6 mice and male Wistar rats were maintained in individual cages under controlled temperature (21-23° C.) with ad libitum access to standard chow (RM1 diet, SDS Ltd, Witham, Essex, UK) and to water. The light cycle was 14 hours light and 10 hours dark with ‘dawn’ at 07:00, lights full on at 07:30, ‘dusk’ at 21:00 with lights off at 21:30. These times were fixed in the animal facility.
All animals were handled almost daily for on average nine days prior to the first study. During the acclimatization period, each animal received two saline injections at least two days apart in order to further acclimatize to the procedure on the study days.
Intra-peritoneal (IP) injections. IP injections were administered to mice via a 0.5 ml syringe with a 29-gauge needle (maximum injection volume 0.1 ml). Maximum volume administered IP was 0.1 ml.
Study protocol: C57BL/6 mice (20-35 g) were injected with the peptide under investigation following a 20-hour fast. Wistar rats were injected following a 24-hour fast. A pre-weighed quantity of chow was presented immediately after injection. The remaining food was measured at regular time intervals (e.g. 1, 2, 3, 4, 6, 8, 24 and 48 hours following injection) and food intake calculated.

[1] = Example 57, mice, 6 or 20 nmol/kg, vs saline
[2] = Example 6, mice, 2700 nmol/kg, 0-8 h
[3] = Example 7, mice, 1000 nmol/kg, 0-24 h
[4] = Example 1, fasted mice, 2700 nmol/kg by injection, intervals up to 32 h, vs saline and oxm
[5] = Example 11, mice, 100 nmol/kg, vs oxm(xx15-24)

## Ala2-oxm: oxm with Ser at residue 2 substituted by Ala (HAQGTFTSDYSKYLDSRRAQDFVQWLMNTKRNRNNIA; Oxyntomodulin; UniProt P01275 53-89, looked up, variant S2A)
Example 5, fasted mice, 2700 nmol/kg, 0-4 h, vs saline and oxm
  food intake: does NOT significantly reduce food intake compared to saline

## CH3—CO—NH—CRH—CO-Ser Gln Gly Thr Phe Thr Ser Asp Tyr Ser Lys Tyr Leu Asp Ser Arg Arg Ala Gln Asp Phe Val Gln Trp Leu Met Asn Thr Lys Arg Asn Arg Asn Asn Ile Ala [Acetyloxyntomodulin]
Example 14, mice, 1400 mmol/kg (so in the source)
  onset of anorectic effect: later acting than that of oxyntomodulin

## D-His Ala Gln Gly Thr Phe Thr Ser Asp Tyr Ser Lys Tyr Leu Asp Ser Arg Arg Ala Gln Asp Phe Val Gln Trp Leu Met Asn Thr Lys Arg Asn Arg Asn Asn Ile Ala (XAQGTFTSDYSKYLDSRRAQDFVQWLMNTKRNRNNIA; D-His at position 1; Oxm Analogue; D-His) [D-His-Ala2-oxm]
mice
  Multiples of food inhibition Factor: 2.5
Example 43, mice, food intake
  minimum effective dose: approximately 250 nmol/kg
Example 43, mice, various doses, vs oxm
  effectiveness on food intake: more effective than oxm

## D-His Ala Gln Gly Thr Phe Thr Ser Asp Tyr Ser Lys Tyr Leu Glu Glu Glu Ala Val Arg Leu Phe Ile Glu Trp Leu Lys Asn Gly Gly Pro Ser Ser Asn Asn Ile Ala ([dH]AQGTFTSDYSKYLEEEAVRLFIEWLKNGGPSSNNIA) [D-His1-Ala2-oxm(xx15-24)(xx27-33)]
Example 8, mice, 100 mmol/kg (so in the source)
  duration of effect on food intake: especially long-acting
mice
  Multiples of food inhibition Factor: 1000-4000
  potency relative to oxyntomodulin: 1-4000 times

## D-His Ser Asp Gly Thr Phe Thr Ser Asp Tyr Ser Lys Tyr Leu Glu Glu Glu Val Val Arg Leu Phe Ile Gln Trp Leu Lys Asn Gly Gly Pro Ser Lys Asn Asn Ile Ala Ala Ala Glu Glu Lys-Lauroyl ([dH]SDGTFTSDYSKYLEEEVVRLFIQWLKNGGPSKNNIAAAEEK(Lauroyl))
[1]
  cumulative food intake: markedly decreased cumulative food intake in comparison to the saline control

## D-His Ser Gln Gly Thr Phe Thr Ser Asp Tyr Ser Lys Tyr Leu Asp Ser Arg Arg Ala Gln Asp Phe Val Gln Trp Leu Lys Asn Gly Gly Pro Ser Ser Gly Ala Pro Pro Pro Ser ([dH]SQGTFTSDYSKYLDSRRAQDFVQWLKNGGPSSGAPPPS) [D-His-oxm26ex]
Example 13, mice, 1000 nmol/kg (FIG. 21d)
  cumulative food intake: reduction in food intake in comparison to oxm26ex

## D-Ser Ala Asp Gly Thr Phe Thr Ser Asp Tyr Ser Lys Tyr Leu Glu Glu Glu Ala Val Arg Leu Phe Ile Gln Trp Leu Lys Asn Gly Gly Pro Ser Lys Asn Asn Ile Ala Ala Ala Glu Glu Lys-Lauroyl
[1]
  cumulative food intake: markedly decreased cumulative food intake in comparison to the saline control

## Des-His-oxm: oxm analogue with substitution of the first amino acid (His 1) (SQGTFTSDYSKYLDSRRAQDFVQWLMNTKRNRNNIA; Oxyntomodulin; UniProt P01275 53-89, looked up, variant H1*)
Example 12, fasted mice, 2700 nmol/kg, 0-4 h
  food intake: reduced food intake
Example 12, fasted mice, 2700 nmol/kg, vs native oxm
  duration of action on food intake: more sustained action than native oxm

## HSQGTFTSDYSKYLDSRRAQDFVQWLKNGGPSSGAPPPS [oxm26ex]
[2]
  food intake: potent and long-lasting effect on food intake
[3]
  food intake: significantly inhibit feeding both compared to saline control and compared to the oxm-treated group
Example 7, mice, 1000 nmol/kg, vs exendin
  duration of effect on food intake: not as long-lasting as those of exendin

## HSQGTFTSDYSKYLEEEAAQDFVQWLMNTKRNRNNIA [oxm(xx15-18)]
[4]
  food intake: increased and prolonged inhibition of food intake compared to both saline and oxm

## HSQGTFTSDYSKYLEEEAIRLFIEWLMNTKRNRNNIA [Ile19-oxm(xx15-24)]
Example 11, mice, 100 nmol/kg, 0-24 h, vs oxm(xx15-24)
  potency on food intake: equipotent with or slightly more potent than oxm(xx15-24)
[5]
  onset and duration of activity on food intake: slightly delayed action as compared with oxm (xx15-24)
Example 11, mice, 100 nmol/kg, vs oxm(xx15-24), listed as SEQ ID NO: 34
  onset and duration of activity on food intake: delayed onset

## HSQGTFTSDYSKYLEEEAVRLFIEWLMNTKRNRNNIA [oxm(xx15-24)]
[4]
  food intake: greater and more prolonged appetite suppressant effect; also recorded: more potent effect on feeding than oxm
Example 2, mice, 300 nmol/kg, first 8 hours post-injection (FIG. 4c)
  cumulative food intake: reduces food intake only slightly less than exendin over the first 8 hours post-injection
mice
  Multiples of food inhibition Factor: 400
Example 27, mice, 100 nmol/kg
  food intake: most effective
  potency relative to oxyntomodulin: 400 times

## HSQGTFTSDYSKYLEEEAVRLFVQWLMNTKRNRNNIA [oxm(xx15-21)]
[4]
  food intake: greater and more prolonged appetite suppressant effect
mice
  Multiples of food inhibition Factor: 200
  potency relative to oxyntomodulin: 200 times

## HSQGTFTSDYSKYLEEEVVRLFIEWLMNTKRNRNNIA [18Val-oxm(xx15-24)]
[5]
  onset and duration of activity on food intake: delayed onset of activity as compared with oxm(xx15-24) whilst the activity is more prolonged
Example 11, mice, 100 nmol/kg, vs oxm(xx15-24), listed as SEQ ID NO: 31
  onset and duration of activity on food intake: delayed onset

## HSQGTFTSDYSKYLEEEVVRLFVQWLMNTKRNRNNIA
Example 16, mice, 30 nmol/kg
  food intake: reduction in food intake from 0 to 2 hours

## His Ser Gln Gly Thr Phe Thr Ser Asp Tyr Ser Lys Tyr Leu Asp Ser Arg Arg Ala Gln Asp Phe Val Gln Trp Leu Arg Asn Gly Gly Pro Ser Ser Asn Asn Ile Ala (HSQGTFTSDYSKYLDSRRAQDFVQWLRNGGPSSNNIA; Arg27-oxm(ex27-33))
Example 17, mice, 300 nmol/kg
  food intake: reduction in food intake from 0 to 1 hours
Example 30, mice, 1400 or 300 nmol/kg, vs oxm(ex27-33)
  food intake: reduce the effect of oxm(ex27-33) on food intake

## His Ser Gln Gly Thr Phe Thr Ser Asp Tyr Ser Lys Tyr Leu Asp Ser Arg Arg Ala Gln Asp Phe Val Gln Trp Leu Lys Asn Gly Gly Pro Asn Ser Asn Asn Ile Ala (HSQGTFTSDYSKYLDSRRAQDFVQWLKNGGPNSNNIA; Asn32-oxm(ex27-33))
Example 31, mice, 300 nmol/kg, vs oxm(ex27-33)
  food intake: reduces the effect of oxm(ex27-33) on food intake

## His Ser Gln Gly Thr Phe Thr Ser Asp Tyr Ser Lys Tyr Leu Asp Ser Arg Arg Ala Gln Asp Phe Val Gln Trp Leu Lys Asn Gly Gly Pro Ser Ser Asn Asn Ile Ala (HSQGTFTSDYSKYLDSRRAQDFVQWLKNGGPSSNNIA; Oxm Analogue) [oxm(xx27-33)]
Example 3, mice, 2700 nmol/kg, vs saline and oxm
  food intake: increased and prolonged inhibition of food intake compared to both saline and oxm
mice
  Multiples of food inhibition Factor: 7

## His Ser Gln Gly Thr Phe Thr Ser Asp Tyr Ser Lys Tyr Leu Glu Glu Glu Ala Val Arg Leu Phe Ile Glu Trp Leu Lys Asn Gly Gly Pro Ser Ser Gly Ala Pro Pro Pro Ser [oxm(xx15-39)]
[2]
  food intake: potent and long-lasting effect on food intake
[3]
  food intake: significantly inhibit feeding both compared to saline control and compared to the oxm-treated group
